Data published in US20150018301A1, “LRRK-2-Mediated Neuronal Toxicity” (THE JOHNS HOPKINS UNIVERSITY, priority 2009, published 2015).

Experiments:
[1] = from literature; cited from earlier work
[2] = system: HSV-G2019S LRRK2 dopaminergic neurotoxicity; experiment: HSV amplicon-based mouse model of LRRK2 dopaminergic neurotoxicity; assay type: in vivo; details: for loss of tyrosine hydroxylase-positive neurons induced by HSV-G2019S LRRK2: 2.5 mg per kg i.p. twice daily, 3 weeks, versus DMSO- and indirubin-injected controls
LRRK2 G2019S = LRRK2 G2019S (Homo sapiens, UniProt Q5S007, G2019S); experiment: In vitro kinase assay: G2019S LRRK2 autophosphorylation; assay type: biochemical; details: for IC50: Table 2, mean of three experiments; for effect on G2019S LRRK2 autophosphorylation: dose-response
LRRK2 G2019S, sequence (Q5S007 whole entry G2019S): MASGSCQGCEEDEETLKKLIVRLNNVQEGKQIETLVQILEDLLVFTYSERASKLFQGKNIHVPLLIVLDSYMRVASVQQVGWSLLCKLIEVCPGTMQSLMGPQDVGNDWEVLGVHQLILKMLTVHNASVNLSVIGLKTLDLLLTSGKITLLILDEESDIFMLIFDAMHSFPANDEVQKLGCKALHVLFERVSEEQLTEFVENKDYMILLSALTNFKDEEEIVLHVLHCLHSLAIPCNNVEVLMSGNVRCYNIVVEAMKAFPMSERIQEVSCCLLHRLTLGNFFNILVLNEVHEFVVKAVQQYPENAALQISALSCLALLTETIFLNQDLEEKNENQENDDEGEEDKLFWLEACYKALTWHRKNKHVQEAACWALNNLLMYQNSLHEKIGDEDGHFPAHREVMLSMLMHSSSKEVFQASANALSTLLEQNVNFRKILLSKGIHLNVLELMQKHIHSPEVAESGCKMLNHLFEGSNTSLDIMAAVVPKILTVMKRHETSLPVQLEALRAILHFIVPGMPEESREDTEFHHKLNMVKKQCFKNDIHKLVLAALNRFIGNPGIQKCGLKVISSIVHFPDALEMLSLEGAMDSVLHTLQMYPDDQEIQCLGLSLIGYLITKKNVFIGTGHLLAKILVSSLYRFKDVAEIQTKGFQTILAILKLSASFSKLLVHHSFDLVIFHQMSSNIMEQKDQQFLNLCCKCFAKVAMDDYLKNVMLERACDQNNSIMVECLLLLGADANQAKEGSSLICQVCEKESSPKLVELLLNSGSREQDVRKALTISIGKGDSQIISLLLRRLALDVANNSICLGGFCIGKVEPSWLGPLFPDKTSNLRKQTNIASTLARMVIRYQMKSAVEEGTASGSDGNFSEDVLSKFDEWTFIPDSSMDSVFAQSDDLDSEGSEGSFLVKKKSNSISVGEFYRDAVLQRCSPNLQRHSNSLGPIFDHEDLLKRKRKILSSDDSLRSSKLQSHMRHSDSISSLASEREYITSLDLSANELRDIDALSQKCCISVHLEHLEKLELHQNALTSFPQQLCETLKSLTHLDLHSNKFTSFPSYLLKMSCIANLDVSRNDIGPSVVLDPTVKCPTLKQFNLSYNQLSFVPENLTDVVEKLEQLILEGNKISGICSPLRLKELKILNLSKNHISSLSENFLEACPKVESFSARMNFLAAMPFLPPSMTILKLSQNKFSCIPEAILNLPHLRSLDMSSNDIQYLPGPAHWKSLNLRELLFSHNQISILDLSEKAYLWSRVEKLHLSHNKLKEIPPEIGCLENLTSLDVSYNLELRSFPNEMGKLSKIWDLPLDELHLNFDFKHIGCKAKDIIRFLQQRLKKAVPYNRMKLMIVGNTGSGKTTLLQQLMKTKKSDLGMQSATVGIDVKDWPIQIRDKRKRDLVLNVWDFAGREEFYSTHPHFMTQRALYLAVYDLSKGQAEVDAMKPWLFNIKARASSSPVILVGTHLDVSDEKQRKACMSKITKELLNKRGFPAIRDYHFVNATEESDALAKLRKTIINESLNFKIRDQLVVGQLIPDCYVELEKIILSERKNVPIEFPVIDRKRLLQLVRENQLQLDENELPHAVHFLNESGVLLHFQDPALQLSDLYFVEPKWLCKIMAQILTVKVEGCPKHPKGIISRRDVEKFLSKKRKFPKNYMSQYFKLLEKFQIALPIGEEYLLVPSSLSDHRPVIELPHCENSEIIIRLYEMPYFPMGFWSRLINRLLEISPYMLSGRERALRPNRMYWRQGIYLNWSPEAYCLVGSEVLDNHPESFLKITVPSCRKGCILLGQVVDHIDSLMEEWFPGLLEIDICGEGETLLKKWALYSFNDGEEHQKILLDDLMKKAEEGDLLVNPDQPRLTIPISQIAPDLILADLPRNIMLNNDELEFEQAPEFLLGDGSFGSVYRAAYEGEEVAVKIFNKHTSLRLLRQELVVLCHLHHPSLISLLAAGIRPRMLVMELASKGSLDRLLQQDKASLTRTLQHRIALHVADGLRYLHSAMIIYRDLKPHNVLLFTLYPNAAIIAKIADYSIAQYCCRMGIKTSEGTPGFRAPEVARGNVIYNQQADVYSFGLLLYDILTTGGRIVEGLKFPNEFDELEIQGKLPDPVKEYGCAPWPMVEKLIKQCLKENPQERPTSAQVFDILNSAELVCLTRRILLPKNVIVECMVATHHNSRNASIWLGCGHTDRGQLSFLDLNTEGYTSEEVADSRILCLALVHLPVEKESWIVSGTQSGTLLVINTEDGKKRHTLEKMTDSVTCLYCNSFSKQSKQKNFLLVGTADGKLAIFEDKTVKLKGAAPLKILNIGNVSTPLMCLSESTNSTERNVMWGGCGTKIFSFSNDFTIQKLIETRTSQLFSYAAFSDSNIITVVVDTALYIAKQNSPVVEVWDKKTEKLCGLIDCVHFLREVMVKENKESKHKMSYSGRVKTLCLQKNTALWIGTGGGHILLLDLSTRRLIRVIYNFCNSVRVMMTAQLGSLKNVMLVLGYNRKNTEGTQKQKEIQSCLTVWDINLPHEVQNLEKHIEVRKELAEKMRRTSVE
Description: Transfection was performed by using Fugene HD reagent (Roche Applied Science) according to the manufacturer's instruction. For purification of recombinant LRRK1 and LRRK2 proteins, ACTA Purifier (GE Healthcare) FPLC system was used.
Resulting lysates were rotated at 4° C. for 30 min followed by centrifugation at 20,000×g for 15 min. The supernatants were injected into a GSTrap FF column pre-equilibrated with PBS at 0.5. mL/min flow after filtration using a 0.2 μm syringe filter (Corning). The bound proteins were eluted with buffer containing 10 mM GSH (Sigma), 150 mM NaCl, and 50 mM Tris-HCl (pH 8.0).
The in vitro kinase assay was performed as previously described. […] Recombinant LRRK2 and MBP or CST-4E-BP1 were combined before the kinase reaction. LRRK2 autophosphorylation is LRRK2 itself phosphorylation and MBP or GST-4E-BP1 phosphorylation is induced by LRRK2. After the kinase reaction, combined LRRK2 and MBP or GST-4E-BP1 were loaded on SDSPAGE and phosphorylated LRRK2 and MBP or GST-4E-BP1 could be detected separately an a single gel. Recombinant proteins and inhibitors were incubated at 30° C. in kinase assay buffer containing 20 mM Hepes (pH 7.4), 5 mM EGTA, and 20 mM β-glycerol phosphate. 0.5 μg MBP (Upstate) or 0.5 μg GST-4B-BP1, 50 μM ATP (Sigma), 20 mM MgCl2, and 1 μCi [γ-32P] ATP (PerkinElmer) was added after 5 min. The reaction was performed at 30° C. to reduce non-specific 32P incorporation for 15 min and terminated by the addition of 5×Laemmili sample buffer. […] Gels were stained by coomassie brilliant blue after fixation with 10% acetic acid and 40% methanol and then exposed to a Phosphoimager. Data were analyzed by ImageQuant 6.0 software.
To calculate the IC50 value, a dose-response curve was constructed and non-linear regression analysis using the equation for a sigmoid plot.

[3] = system: rat primary cortical neuronal cultures transfected with G2019S LRRK2; experiment: LRRK2-induced neuronal toxicity in primary cortical neuronal cultures (neurite shortening, TUNEL); assay type: cell-based; details: 0.5 μM
Description: Representative photomicrographs of each experimental group. LRRK2 and eGFP constructs were combined in a molar ratio of 10:1, respectively, and transfected by using of Lipofectamine 2000 (Invitrogen) at DIV (day in vitro) 14 into rat primary cortical neuronal cultures. Compounds (0.5 μM) were administrated at the time of transfection and continued until toxicity assessments. On DIV 16, images were collected on a Zeiss Automatic stage with Axiovision 6.0. (a) Low magnified photomicrographs; (b and c) High magnified photomicrographs. Scale bar=50 μm (a) and 10 μm (b and c);
Primary cortical neuronal cultures were prepared from gestational day 15 fetal rats as previously described. Gonzalez-Zulueta, M., et al. Manganese superoxide dismutase protects nNOS neurons from NMDA and nitric oxide-mediated neurotoxicity. J Neurosci 18, 2040-2055 (1998). All procedures used in this study were approved by the Johns Hopkins Medical Institute Animal Care Committee. Cell viability assays and DNA fragmentation (TUNEL assay) were performed as previously described. Smith, W. W., et al. Kinase activity of mutant LRRK2 mediates neuronal toxicity. Nat Neurosci 9, 1231-1233 (2006); West, A. B., et al. Parkinson's disease-associated mutations in LRRK2 link enhanced GTP-binding and kinase activities to neuronal toxicity. Hum Mol Genet 16, 223-232 (2007). The cortex was dissected, incubated for 15 min in 0.027% trypsin, and then transferred to modified Eagle's medium (MEM)/10% horse serum/10% fetal bovine serum/2 mM glutamine followed by trituration. Dissociated cells were plated at a density of 3-4×10^5 cells per well in polyornithine-coated plates. After 4 days the cells were treated with 10 μg of 5-fluoro-2′-deoxyuridine to prevent proliferation of nonneuronal cells. Cells were maintained in MEM/5% horse serum/2 mM glutamine in 8% CO2 incubator. The medium was changed twice weekly. For assessment of LRRK2-mediated neuronal injury, LRRK2 and eGFP constructs were combined in a molar ratio of 10:1, respectively, and transfected into neurons with Lipofectamine 2000 (Invitrogen) at DIV (day in vitro) 14. On DIV 16, images were collected on a Zeiss Automatic stage with Axiovision 6.0. Viable neurons were defined as having at least one smooth extension (neurite) with twice the length of the cell body. The percentage of eGFP-positive injured neurons in each experimental group relative to those neurons transfected with eGFP was calculated.

[4] = system: C. elegans expressing LRRK2 G2019S in DA neurons; experiment: Transgenic nematode model of LRRK2 G2019S-induced DA neurodegeneration; assay type: in vivo, Caenorhabditis elegans; details: for rescue of DA neurodegeneration: 7 day-old worms; for worms with wild-type DA neurons (4 CEP and 2 ADE): 7-day-old worms, n=90, 48% with 1% DMSO
Description: Nematodes were maintained following the standard procedures. Brenner, S., 771 GENETICS 71-94 (1974). Isogenic worm strains expressing LRRK2, G2019S, UAXX [baInlX; Pdat-1::LRRK2 G2019S, Pdat-1::gfp] were generated via microinjection, integrated into the genome and out-crossed three times. Age-synchronized worms were obtained by treating gravid adults with 2% sodium hypochlorite and 0.5M NaOH to isolate embryos. Lewis, J. A., 48 METHODS CELL BIOL. 3-29 (1995). These embryos were treated with indicated concentrations of LRRK2 kinase inhibitors, which were dissolved in 1% DSMO, for 24 h. at 20° C. with gentle shaking. The worms were then washed and transferred into NGM plates seeded with OP50 bacteria, and incubated as 20° C. The six anterior DA neurons (4 CEP and 2 ADE neurons) of 30 animals/trial were examined for neurodegeneration when the animals were 7 days old. A total of 90 animals for each treatment were analyzed (3 trials of 30 animals/trial). […] See Hamamichi et al., 105(2) PROC. NATL. ACAD. SCI. USA 728-33 (2008); and Cao et al, 25 J. NEUROSCI. 3801-12 (2005). For each trial, 30 worms were transferred into a 2% agarose pad, immobilized with 2 mM levamisole, and analyzed using Nikon Eclipse E800 epifluorescence microscope equipped with Endow GFP HYQ filter cube (Chrom Technology, Rockingham, Vt.). Images were captured with a Cool Snap CCD camera (Photometrics, Tucson, Ariz.) driven by MetaMorph software (Universal Imaging, West Chester, Pa.).
To determine whether the LRRK2 kinase inhibitors protect against LRRK2-induced neurodegeneration in vivo, the LRRK2 kinase inhibitors were tested in the C. elegans model of LRRK2 G2019S-induced neurodegeneration described above. The DA transporter (dat-1) was used to direct expression of LRRK2 G2019S in DA neurons.

Structure (SMILES) | crossing of the blood-brain barrier [1] | loss of tyrosine hydroxylase-positive neurons induced by HSV-G2019S LRRK2 [2] | IC50 (LRRK2 G2019S) [nM] | effect on G2019S LRRK2 autophosphorylation (LRRK2 G2019S) | G2019S LRRK2 cell death (TUNEL) [3] | G2019S LRRK2 cell injury (neurite shortening) [3] | G2019S LRRK2 toxicity [3] | rescue of DA neurodegeneration [4] | increase in ILB4-positive cells in striatum and substantia nigra pars compacta ([2]; G2019S LRRK2 mice, 2.5 mg/kg i.p. twice daily) | reduction in the density of tyrosine hydroxylase-positive fibers (striatum) ([2]; HSV-LRRK2 G2019S mice, 2.5 mg/kg i.p. twice daily) | worms with wild-type DA neurons (4 CEP and 2 ADE) ([4]; 10 μM) [%] | worms with wild-type DA neurons (4 CEP and 2 ADE) ([4]; 25 μM) [%]
O=C1Nc2ccccc2/C1=C1/Nc2ccccc2/C1=N\O [Inhibitor 70, Indirubin-3-monooxine] | known to cross the blood-brain barrier | attenuated | 380 | inhibited | attenuated | attenuated | – | – | – | – | – | –
Cc1ccc(NC(=O)c2cccc(N(C)C)c2)cc1NC(=O)c1ccc(O)cc1 [Inhibitor 53, ZM336372] | – | – | – | no effect | – | – | failed to inhibit | failed to rescue | – | – | – | –
O=C1Nc2ccc(I)cc2/C1=C/c1cc(Br)c(O)c(Br)c1 [Inhibitor 56, GW5074] | known to cross the blood-brain barrier | attenuated | 220 | – | attenuated | attenuated | – | protect worms from neurodegeneration | prevented | rescued | 66 | 67
